The subject of one series is Alternaria brassicae. In words: Example E: in vivo preventive test (cabbage). As to conditions: 144 h, 500 ppm of tested compound, preventive spray, evaluated 6 days after inoculation, read-out: efficacy. As to the method:
Solvent: 5% by volume of dimethyl sulfoxide • 10% by volume of acetone Emulsifier: 1 μL of Tween® 80 per mg of active ingredient The tested compounds were made soluble and homogenized in a mixture of Dimethyl sulfoxide/Acetone/Tween® 80 and then diluted in water to the desired concentration. The young plants of cabbage were treated by spraying the tested compound prepared as described above. Control plants were treated only with an aqueous solution of Acetone/Dimethyl sulfoxide/Tween® 80. After 24 hours, the plants were contaminated by spraying the leaves with an aqueous suspension of Alternaria brassicae spores. The contaminated cabbage plants were incubated for 6 days at 20° C. and at 100% relative humidity. The test was evaluated 6 days after the inoculation. 0% means an efficacy which corresponds to that of the control plants while an efficacy of 100% means that no disease was observed.

Series [1] in a line: Log P by HPLC on reversed phase columns, method [a] (EEC directive 79/831 Annex V.A8). It counts as physicochemical. Conditions: reversed phase HPLC column, read-out: logP. The procedure, abridged:
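Reversed-phase HPLC with LC-UV detection per EEC directive 79/831 Annex V.A8, acidic eluent of 0.1% formic acid in water and acetonitrile, linear gradient 10% to 95% acetonitrile. Log P derived from retention times, calibrated against straight-chain alkan-2-ones (C3–C16) by linear interpolation.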

The subject of series [2] is Colletotrichum lindemuthianum. The series is described as follows: Example B: in vitro cell test, spore germination and mycelium growth in liquid culture. Format: cell-based. Conditions: 144 h, 20 ppm of tested compound, 6 days incubation, read-out: efficacy (inhibition of fungal growth). As to the method:
• Solvent: dimethyl sulfoxide Culture medium: 14.6 g anhydrous D-glucose (VWR), • 7.1 g mycological peptone (Oxoid), • 1.4 g granulated yeast extract (Merck), QSP 1 liter Inoculum: spore suspension The tested compounds were solubilized in dimethyl sulfoxide and the solution used to prepare the required range of concentrations. The final concentration of dimethyl sulfoxide used in the assay was ≤1%. A spore suspension of Colletotrichum lindemuthianum was prepared and diluted to the desired spore density. The compounds were evaluated for their ability to inhibit spore germination and mycelium growth in liquid culture assay. The compounds were added in the desired concentration to the culture medium with spores. After 6 days incubation, fungi-toxicity of compounds was determined by spectrometric measurement of mycelium growth. Inhibition of fungal growth was determined by comparing the absorbance values in wells containing the tested compounds with the absorbance in control wells without tested compounds.

The subject of a further series is Phakopsora pachyrhizi. The series is described as follows: Example F: in vivo preventive test (soybeans), DMSO/acetone/Tween 80. Conditions: 288 h, 500 ppm of tested compound, preventive spray, soybean, evaluated 12 days after inoculation, read-out: efficacy. As to the method:
Solvent: 5% by volume of dimethyl sulfoxide • 10% by volume of acetone
Emulsifier: 1 μL of Tween® 80 per mg of active ingredient
The tested compounds were made soluble and homogenized in a mixture of dimethyl sulfoxide/acetone/Tween® 80 and then diluted in water to the desired concentration.
The young plants of wheat were treated by spraying the tested compound prepared as described above. Control plants were treated only with an aqueous solution of acetone/dimethyl sulfoxide/Tween® 80.
After 24 hours, the plants were contaminated by spraying the leaves with an aqueous suspension of Phakospora pachyrhizi spores. The contaminated soybean plants were incubated for 24 hours at 24° C. and at 100% relative humidity and then for 11 days at 24° C. and at 70-80% relative humidity.
The test was evaluated 12 days after the inoculation. 0% means an efficacy which corresponds to that of the control plants while an efficacy of 100% means that no disease was observed.

Setting [3] is: log P determined according to method [a] (HPLC on reversed phase columns).
The mark [4] stands for this setting: method [a], HPLC on reversed phase columns.

The values that follow come from patent US20220144815A1, “1,3,4-OXADIAZOLES AND THEIR DERIVATIVES AS NEW ANTIFUNGAL AGENTS” (Bayer Aktiengesellschaft, priority 2018, published 2022).

Like-named read-outs stand apart in the source and are kept apart here.

Regarding `CSc1ccc(-c2nnc(C(F)F)o2)cc1` [I.002, 2-(difluoromethyl)-5-[4-(methylsulfanyl)phenyl]-1,3,4-oxadiazole], the pest or weed control at 500 µg/mL with Alternaria brassicae lay within 70 to 79%.

As for `FC(F)c1nnc(-c2cnc(NCC3CCOCC3)nc2)o1` [I.105, 5-[5-(difluoromethyl)-1,3,4-oxadiazol-2-yl]-N-(tetrahydro-2H-pyran-4-ylmethyl)pyrimidin-2-amine], the chromatographic logP in series [1] (setting [3]) came to 1.73. In addition, in the series on Alternaria brassicae, the pest or weed control at 500 µg/mL is 80 to 89%.

A word on the inhibition of growth: it is the drop in the measured response relative to a control, in per cent. As for `Fc1ccccc1Nc1ccc(-c2nnc(C(F)F)o2)cc1` [I.017, N-{4-[5-(difluoromethyl)-1,3,4-oxadiazol-2-yl]phenyl}-2-fluoroaniline], the inhibition of growth at 20 µg/mL in series [2] was 90 to 100%. Further, in the series with Alternaria brassicae, the pest or weed control at 500 µg/mL lay in the range of 80 to 89%.

`FC(F)c1nnc(-c2ccc(-n3ccnn3)cc2)o1` [I.005, 2-(difluoromethyl)-5-[4-(1H-1,2,3-triazol-1-yl)phenyl]-1,3,4-oxadiazole]: the pest or weed control at 500 µg/mL in the series on Alternaria brassicae lay in the range of 90 to 100%.

Consider `Fc1ccccc1Nc1ncc(-c2nnc(C(F)(F)Cl)o2)cn1` [I.131, 5-{5-[chloro(difluoro)methyl]-1,3,4-oxadiazol-2-yl}-N-(2-fluorophenyl)pyrimidin-2-amine], for which the chromatographic logP in series [1] (setting [3]) was 3.26. The inhibition of growth at 20 µg/mL in series [2] was in the range of 90 to 100%. The pest or weed control at 500 µg/mL in the series with Alternaria brassicae is 90 to 100%.

`FC(F)c1nnc(-c2cnc(NC3(c4ccc(Cl)cc4)CCCCC3)nc2)o1` [I.182, N-[1-(4-chlorophenyl)cyclohexyl]-5-[5-(difluoromethyl)-1,3,4-oxadiazol-2-yl]pyrimidin-2-amine]: in series [1] (setting [4]), the chromatographic logP stood at 4.4. Moreover, the inhibition of growth at 20 µg/mL in series [2] lay in the range of 70 to 79%.

For `FC(F)c1nnc(-c2ccc(Br)cc2)o1` [I.009, 2-(4-bromophenyl)-5-(difluoromethyl)-1,3,4-oxadiazole], the pest or weed control at 500 µg/mL in the series on Phakopsora pachyrhizi lay within 70 to 79%.

`Fc1cccc(Nc2ncc(-c3nnc(C(F)F)o3)cn2)c1` [I.094, 5-[5-(difluoromethyl)-1,3,4-oxadiazol-2-yl]-N-(3-fluorophenyl)pyrimidin-2-amine]: the pest or weed control at 500 µg/mL with Alternaria brassicae is 90 to 100%.

With `FC(F)(F)c1nnc(-c2cnc(NC3(c4ccccc4)CCC3)nc2)s1` [I.173, N-(1-phenylcyclobutyl)-5-[5-(trifluoromethyl)-1,3,4-thiadiazol-2-yl]pyrimidin-2-amine], the chromatographic logP in series [1] (setting [4]) is 4.12. Further, the inhibition of growth at 20 µg/mL in series [2] is 80 to 89%.

With `CN(c1ccccc1)c1ncc(-c2nnc(C(F)F)o2)cn1` [I.087, 5-[5-(difluoromethyl)-1,3,4-oxadiazol-2-yl]-N-methyl-N-phenylpyrimidin-2-amine], the pest or weed control at 500 µg/mL in the series on Alternaria brassicae was 90 to 100%.

For the compound `Nc1ncc(-c2nnc(C(F)F)o2)cn1` [I.059, 5-[5-(difluoromethyl)-1,3,4-oxadiazol-2-yl]pyrimidin-2-amine], the pest or weed control at 500 µg/mL with Phakopsora pachyrhizi fell in the range of 90 to 100%.

With `N#Cc1ccc(C2(Nc3ncc(-c4nnc(C(F)F)o4)cn3)CC2)cc1` [I.152, 4-[1-({5-[5-(difluoromethyl)-1,3,4-oxadiazol-2-yl]pyrimidin-2-yl}amino)cyclopropyl]benzonitrile], the chromatographic logP in series [1] (setting [3]) was 2.33. For the same compound, the inhibition of growth at 20 µg/mL in series [2] fell in the range of 90 to 100%.

As for `CON(Cc1ccc(Cl)cc1)c1ncc(-c2nnc(C(F)F)o2)cn1` [I.169, N-(4-chlorobenzyl)-N-{5-[5-(difluoromethyl)-1,3,4-oxadiazol-2-yl]pyrimidin-2-yl}-O-methylhydroxylamine], the chromatographic logP in series [1] (setting [3]) amounted to 3.31. In addition, the inhibition of growth at 20 µg/mL in series [2] lay within 80 to 89%.

Turning to `FC(F)c1nnc(-c2ccc(COc3ccc(Cl)cc3)cc2)o1` [I.024, 2-{4-[(4-chlorophenoxy)methyl]phenyl}-5-(difluoromethyl)-1,3,4-oxadiazole], in the series on Phakopsora pachyrhizi, the pest or weed control at 500 µg/mL is 90 to 100%.

As for `FC(F)c1nnc(-c2cnc(NC3(c4ccccc4)CCC3)nc2)s1` [I.159, 5-[5-(difluoromethyl)-1,3,4-thiadiazol-2-yl]-N-(1-phenylcyclobutyl)pyrimidin-2-amine], the chromatographic logP in series [1] (setting [3]) stood at 3.54. Further, the inhibition of growth at 20 µg/mL in series [2] lay in the range of 90 to 100%.

On to `FC(F)c1nnc(-c2ccc(Cn3ccnc3)cc2)o1` [I.010, 2-(difluoromethyl)-5-[4-(1H-imidazol-1-ylmethyl)phenyl]-1,3,4-oxadiazole], for which the pest or weed control at 500 µg/mL in the series with Alternaria brassicae fell in the range of 90 to 100%.

As for `FC(F)c1nnc(-c2ccc(-c3nnc(C(F)F)o3)cc2)o1` [I.019, 2,2′-(1,4-phenylene)bis[5-(difluoromethyl)-1,3,4-oxadiazole]], the pest or weed control at 500 µg/mL in the series with Phakopsora pachyrhizi was 90 to 100%.

As for `FC(F)c1nnc(-c2ccc(N3CCCCC3)nc2)o1` [I.040, 5-[5-(difluoromethyl)-1,3,4-oxadiazol-2-yl]-2-(piperidin-1-yl)pyridine], the pest or weed control at 500 µg/mL in the series with Alternaria brassicae was in the range of 70 to 79%.

Consider `COCCNc1ncc(-c2nnc(C(F)F)o2)cn1` [I.068, 5-[5-(difluoromethyl)-1,3,4-oxadiazol-2-yl]-N-(2-methoxyethyl)pyrimidin-2-amine], for which, in series [2], the inhibition of growth at 20 µg/mL was 90 to 100%. Moreover, the pest or weed control at 500 µg/mL with Alternaria brassicae is 70 to 79%.

On to `FC(F)(Cl)c1nnc(-c2cnc(NC3(c4ccccc4)CCC3)nc2)o1` [I.176, 5-{5-[chloro(difluoro)methyl]-1,3,4-oxadiazol-2-yl}-N-(1-phenylcyclobutyl)pyrimidin-2-amine], for which the chromatographic logP in series [1] (setting [4]) came to 4.08. In series [2], the inhibition of growth at 20 µg/mL lay in the range of 70 to 79%.

For the compound `FC(F)c1nnc(-c2ccc(Nc3ncccn3)cc2)o1` [I.013, N-{4-[5-(difluoromethyl)-1,3,4-oxadiazol-2-yl]phenyl}pyrimidin-2-amine], the inhibition of growth at 20 µg/mL in series [2] lay in the range of 90 to 100%. Further, the pest or weed control at 500 µg/mL in the series on Alternaria brassicae lay within 90 to 100%.

For `FC(F)c1nnc(-c2cnc(CC3CCCCC3)nc2)o1` [I.083, 2-(cyclohexylmethyl)-5-[5-(difluoromethyl)-1,3,4-oxadiazol-2-yl]pyrimidine], the pest or weed control at 500 µg/mL with Phakopsora pachyrhizi lay within 90 to 100%.

In the case of `N#CC(Nc1ncc(-c2nnc(C(F)F)o2)cn1)c1ccc(F)cc1` (racemic) [I.141, (2RS)—({5-[5-(difluoromethyl)-1,3,4-oxadiazol-2-yl]pyrimidin-2-yl}amino)(4-fluorophenyl)acetonitrile], in series [1] (setting [3]), the chromatographic logP worked out at 2.65. For the same compound, the inhibition of growth at 20 µg/mL in series [2] lay in the range of 70 to 79%.

For the compound `FC(F)c1nnc(-c2cnc(-c3ccsc3)nc2)o1` [I.072, 5-[5-(difluoromethyl)-1,3,4-oxadiazol-2-yl]-2-(3-thienyl)pyrimidine], the pest or weed control at 500 µg/mL in the series with Alternaria brassicae was 70 to 79%.

On to `FC(F)c1nnc(-c2ccc(-c3ccccc3)cc2)o1` [I.007, 2-([biphenyl]-4-yl)-5-(difluoromethyl)-1,3,4-oxadiazole], for which, in the series with Alternaria brassicae, the pest or weed control at 500 µg/mL lay within 80 to 89%.

Regarding `Fc1ccc(Cc2ncc(-c3nnc(C(F)F)o3)cn2)c(F)c1` [I.115, 2-(2,4-difluorobenzyl)-5-[5-(difluoromethyl)-1,3,4-oxadiazol-2-yl]pyrimidine], the chromatographic logP in series [1] (setting [3]) was determined as 2.7. The pest or weed control at 500 µg/mL in the series with Phakopsora pachyrhizi lay within 70 to 79%.

Turning to `FC(F)c1nnc(-c2cnc(NCc3ccccc3)nc2)o1` [I.088, N-benzyl-5-[5-(difluoromethyl)-1,3,4-oxadiazol-2-yl]pyrimidin-2-amine], the pest or weed control at 500 µg/mL in the series on Phakopsora pachyrhizi is 90 to 100%.

Consider `CC(C)C(Nc1ncc(-c2nnc(C(F)F)o2)cn1)c1ccccc1` (racemic) [I.139, 5-[5-(difluoromethyl)-1,3,4-oxadiazol-2-yl]-N-[(1RS)-2-methyl-1-phenylpropyl]pyrimidin-2-amine], for which, in series [1] (setting [3]), the chromatographic logP is 3.57. The inhibition of growth at 20 µg/mL in series [2] is 90 to 100%.

Turning to `FC(F)c1nnc(-c2cnc(NC3(c4ccccc4Br)CC3)nc2)o1` [I.183, N-[1-(2-bromophenyl)cyclopropyl]-5-[5-(difluoromethyl)-1,3,4-oxadiazol-2-yl]pyrimidin-2-amine], the chromatographic logP in series [1] (setting [4]) came to 3.49. For the same compound, the inhibition of growth at 20 µg/mL in series [2] lay within 80 to 89%.
